In publication PMC10033154 (Journal of Molecular Structure, 2023):

Molecular target: SARS-CoV-2 3CL protease (Severe acute respiratory syndrome coronavirus 2, UniProt P0DTD1)
Experiment: FRET enzyme activity inhibition assay of SARS-CoV-2 3CLpro
Format: biochemical

COc1ccc(C=C[N+](=O)[O-])cc1OC [compound f, 3,4-dimethoxyl-β-nitrostyrene]
IC50: 5.07 µM
